The results in this text go back to BindingDB's records for doi:10.1016/j.bmcl.2011.01.024 (Amira Pharmaceuticals, 2011).

This experiment in a line: Inhibition of human prostanoid DP2 receptor in human whole bood assessed as eosinophil shape change preincubated for 15 mins before addition of PGD2 measured after 5 mins by FACS analysis.
As usually defined, the IC50 is the point on the concentration scale where inhibition reaches its midpoint. For `CCN(Cc1cc(C(F)(F)F)ccc1-c1cc(CC(=O)O)ccc1OC)C(=O)OCc1ccc(Cl)cc1`, the IC50 stood at 6 nM.

`COC(=O)N(Cc1ccccc1)Cc1cc(C(F)(F)F)ccc1-c1cc(CC(=O)O)ccc1OC`: the IC50 was determined as 22 nM.

Turning to `CCN(Cc1cc(C(F)(F)F)ccc1-c1cc(CC(=O)O)ccc1OC)C(=O)OC`, the concentration for half-maximal inhibition (IC50) was 8 nM.

Consider `COC(=O)N(CCc1ccccc1)Cc1cc(C(F)(F)F)ccc1-c1cc(CC(=O)O)ccc1OC`, for which the IC50 is 34 nM.

Consider `COc1ccc(CC(=O)O)cc1-c1ccc(C(F)(F)F)cc1CNC(=O)OCc1ccccc1`, for which the IC50 stood at 709 nM.

Turning to `COc1ccc(CC(=O)O)cc1-c1ccc(C(F)(F)F)cc1CN(C)C(=O)OCc1ccccc1`, the IC50 was determined as 9 nM.

For `CCN(Cc1cc(C(F)(F)F)ccc1-c1cc(CC(=O)O)ccc1OC)C(=O)OCc1ccccc1Cl`, the IC50 stood at 7 nM.

For `CCN(Cc1cc(C(F)(F)F)ccc1-c1cc(CC(=O)O)ccc1OC)C(=O)OCc1cccc(Cl)c1`, the IC50 is 7 nM.

`CCN(Cc1cc(C(F)(F)F)ccc1-c1cc(CC(=O)O)ccc1OC)C(=O)OCc1cc(F)cc(F)c1`: the IC50 amounted to 5 nM.
